# Experimental data as given in patent US20250361307A1, “COMBINATION THERAPIES FOR TREATING HYPERPROLIFERATIVE DISORDERS” (X4 Pharmaceuticals, Inc., priority 2022, published 2025).
# Key:
# [1] = target: BCL-XL (Homo sapiens, UniProt Q07817); settings: cited from earlier work
# [2] = target: BCL-2 (Homo sapiens, UniProt P10415); settings: cited from earlier work
# [3] = target: T1, BCL-w (Homo sapiens, UniProt Q92843); settings: cited from earlier work
# T1 sequence (Q92843 1-193): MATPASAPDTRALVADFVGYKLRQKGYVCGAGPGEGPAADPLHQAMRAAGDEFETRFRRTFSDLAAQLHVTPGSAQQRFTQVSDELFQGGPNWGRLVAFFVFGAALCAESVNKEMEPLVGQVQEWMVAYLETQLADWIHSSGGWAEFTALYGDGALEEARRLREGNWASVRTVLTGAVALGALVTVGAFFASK
# [4] = test system: MWCL-1 cells; assay: IL-6-mediated IgM secretion in MWCL-1 cells (ELISA); format: cell-based; settings: exogenous IL-6 (FIG. 1F)
# From the text: (§1) The IgM levels were quantitated using a human IgM Enzyme-linked immunosorbent assay (ELISA) kit (Abcam, #ab214568) according to the manufacturer's instructions. IL-6 levels were quantitated using an IL-6 ELISA MAX™ kit (BioLegend, #430515) per manufacturer's recommendations. For all ELISA kits, plates were developed with 3,3′,5,5′-tetramethylbenzidine (TMB) development solution or a biotinylated antihuman IL-6 detection antibody/avidin horseradish peroxidase (HRP) solution. The reaction was stopped with the stop solution, and absorbance was read at 450 nm with a microplate reader (Synergy™ HT, BioTek Instruments).
# [5] = test system: MWCL-1 cells; assay: Apoptosis of MWCL-1 cells in monoculture (Annexin V flow cytometry); format: cell-based
# Protocol: BMSCs were cultured in 96-, 48-, or 24-well plates until 90% confluence. […] Cells were coincubated for 48 or 72 hours followed by measurement of cell viability, apoptosis, IgM, and IL-6 release.
# (§2) Cells were washed with PBS, resuspended in Annexin V binding buffer (BioLegend, #422201), and stained with Alexa Fluor® 647 Annexin V (BioLegend, #640943), propidium iodide (BD Pharmingen, #51-66211E), and CD45 antibody (BioLegend, #368502) for 15 minutes at room temperature and analyzed by flow cytometry.
# [6] = test system: MWCL-1 cells; assay: Sensitivity of MWCL-1 cells in coculture with HS-5 BMSCs (apoptosis, IgM); format: cell-based; settings: HS-5 BMSC coculture vs monoculture (FIG. 10A-D)
# Protocol: (§3) BMSCs were cultured in 96-, 48-, or 24-well plates until 90% confluence. MWCL-1 cells (density≈2×10^5 cells/mL) were pretreated with indicated concentration of mavorixafor together with indicated concentrations of B-cell-targeted inhibitors in medium containing 4% FBS for 1 hour and transferred to the BMSC monolayer. Cells were coincubated for 48 or 72 hours followed by measurement of cell viability, apoptosis, IgM, and IL-6 release.
# as §1, §2
# [7] = test system: MWCL-1 cells; assay: Apoptosis of MWCL-1 cells in coculture with HS-27A BMSCs; format: cell-based; settings: for % apoptotic cells: with BMSC (HS-27a) (FIG. 13A)
# Protocol: as §3, §2
# [8] = test system: HS-27A and HS-5 BMSCs; assay: Apoptosis of BMSCs cocultured with WM cells; format: cell-based; settings: WM cell-BMSC coculture, mavorixafor alone (FIG. 11A-B)
# Protocol: BMSCs were cultured in 96-, 48-, or 24-well plates until 90% confluence. […] Cells were coincubated for 48 or 72 hours followed by measurement of cell viability, apoptosis, IgM, and IL-6 release. Cells were washed with PBS, resuspended in Annexin V binding buffer (BioLegend, #422201), and stained with Alexa Fluor® 647 Annexin V (BioLegend, #640943), propidium iodide (BD Pharmingen, #51-66211E), and CD45 antibody (BioLegend, #368502) for 15 minutes at room temperature and analyzed by flow cytometry.
# [9] = test system: CXCL12-induced Ca2+ mobilization in MWCL-1 cells; assay: Calcium mobilization assay (Fluo-4 AM); format: cell-based; settings: dose-dependent (FIG. 3D)
# Protocol: MWCL-1 cells (2×10^5 cells/well) were seeded in transparent bottom, black 96-well plates coated with poly-L-lysine (BioCoat®, Corning) and serum-starved (medium with 1% FBS) for 24 hours. Medium was removed and cells were loaded with 100 μL of fluo-4 AM (3 μM, Invitrogen, #F14201) dye solution for 45 minutes at 37° C. Subsequently, 100 μL of assay buffer alone or assay buffer with compound dilutions was added, and the plates were equilibrated in the plate reader for an additional 20 minutes at 37° C. The CXCL12 was injected with simultaneous measurement of fluorescent signal (FlexStation® 3 Multi-Mode Microplate Reader, Molecular Devices). Raw traces were analyzed in SoftMax®Pro 7 Software (Molecular Devices). The arbitrary units were calculated as the difference between maximal and minimal signal after treatment injection, normalized to the baseline signal before injection.
# [10] = test system: ALL cells; settings: cited from earlier work
# [11] = patients with WHIM syndrome; cited from earlier work
# [12] = Solubility of mavorixafor; format: physicochemical
# [13] = Terminal half-life of mavorixafor; settings: in vivo
# [14] = test system: MWCL-1 cells; assay: Transwell migration assay; format: cell-based
# Protocol: Cell migration toward CXCL12 gradient or BMSC monolayer was determined using the Transwell migration assay. MWCL-1 cells were stained with 500 nM Calcein AM (Invitrogen, #C1430) and preincubated with mavorixafor for 15 minutes before transfer (5×10^5 cells) to an upper well of a […] pore size Transwell® (Corning, #3421). […] Wells without CXCL12 were treated with 10 μM LIT-927 (Selleck Chemicals, #S8813), a neutraligand of CXCL12, to serve as background control. After 4 hours of incubation, cells that migrated to the lower chambers were collected and resuspended in Dulbecco's phosphate-buffered saline (DPBS) containing Precision Count Beads™ (BioLegend, #424902). Migrated cells and counting beads were counted by flow cytometry
# [15] = test system: cleavage of caspase-3 and PARP in MWCL-1 cells; assay: Immunoblotting of apoptotic markers; format: cell-based; settings: MWCL-1 monoculture (FIG. 4G)
# Protocol: Whole cells were lysed by radioimmunoprecipitation assay (RIPA) lysis buffer (Sigma-Aldrich, #R0278) with protease inhibitor cocktail (Roche Custom Biotech, #11697498001). Lysates were separated by sodium dodecyl sulfate polyacrylamide gel-electrophoresis (SDS-PAGE) electrophoresis and transferred to Trans-Blot® Turbo™ Mini PVDF Transfer Packs (Bio-Rad). Membranes were incubated with primary antibodies: anti-poly adenosine diphosphate (ADP)-ribose polymerase (PARP) (1:1000, Cell Signaling, #9542); Anti-Caspase 3 (1:1000, Cell Signaling, #9662) and antitubulin (1:5000, R&D, #MAB9344). Secondary HRP-conjugated antibodies (Abcam) were used at 1:10.000 dilution. Membranes were developed with enhanced chemiluminescence reagent (Amersham™ ECL Prime Western Blotting Detection Reagent, GE Healthcare) on LAS4000 gel documentation system.
# [16] = test system: MWCL-1 cells; assay: Cell viability of MWCL-1 cells (CellTiter-Glo); format: cell-based; settings: tested concentrations, 4 hours, data not shown
# [17] = test system: MWCL-1 cells; assay: Adhesion assay of MWCL-1 cells to BMSC monolayer; format: cell-based; settings: pretreatment, 4 hours (FIG. 3A)
# Protocol: MWCL-1 cells were labeled with 1 μM Calcein AM. After 10 minutes at 37° C., cells were washed, resuspended in medium containing 1% FBS, and treated with compounds for 30 minutes (2.25× 10^5 cells/mL). MWCL-1 cells were transferred to the BMSC monolayer. After 4 hours, nonadherent cells were removed by gently washing with phosphate-buffered saline (PBS). Remaining cells were harvested, resuspended in flow buffer (Hanks balanced salt solution+20 mM HEPES+0.5% […]) and analyzed by flow cytometry.
# [18] = test system: WM cell-BMSC coculture; assay: IL-6 release in WM/BMSC coculture model (ELISA); format: cell-based; settings: WM cell-BMSC coculture (FIG. 12)
# Protocol: as §1, with “BMSCs were cultured in 96-, 48-, or 24-well plates until 90% confluence. […] Cells were coincubated for 48 or 72 hours followed by measurement of cell viability, apoptosis, IgM, and IL-6 release. The IgM” for “The IgM”
# [19] = test system: MWCL-1 cells; assay: BMSC-induced IgM hypersecretion, MWCL-1/HS-27A coculture (ELISA); format: cell-based
# Protocol: as §1, with “BMSCs were cultured in 96-, 48-, or 24-well plates until 90% confluence. […] Cells were coincubated for 48 or 72 hours followed by measurement of cell viability, apoptosis, IgM, and IL-6 release. The IgM” for “The IgM”
# [20] = test system: WM mouse xenograft; settings: cited from earlier work
# [21] = test system: CXCR4 cell surface expression in MWCL-1 cells; assay: CXCR4 cell surface expression in MWCL-1 cells (flow cytometry); format: cell-based; settings: MWCL-1 cocultured with HS-27A BMSCs (FIG. 2B)
# Protocol: Flow experiments were performed with the CytoFLEX S Flow Cytometer (Beckman Coulter). Samples were analyzed using FCS Express Software (De Novo Software).
# […] Cells were stained with CXCR4 antibody (BD Pharmigen, #555976) and measured by flow cytometry.
# [22] = test system: human WM cells; settings: mouse, in vivo; cited from earlier work
# [23] = absence of bone marrow stroma, 72 hours (FIG. 15)
# Sequence of BCL-2 (P10415 whole entry): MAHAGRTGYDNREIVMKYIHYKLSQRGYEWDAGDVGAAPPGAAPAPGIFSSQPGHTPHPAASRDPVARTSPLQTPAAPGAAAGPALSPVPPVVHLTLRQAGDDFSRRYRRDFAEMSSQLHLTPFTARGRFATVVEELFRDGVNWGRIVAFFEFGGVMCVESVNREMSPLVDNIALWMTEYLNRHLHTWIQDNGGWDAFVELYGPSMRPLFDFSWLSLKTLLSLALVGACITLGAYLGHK
# Sequence of BCL-XL (Q07817 whole entry): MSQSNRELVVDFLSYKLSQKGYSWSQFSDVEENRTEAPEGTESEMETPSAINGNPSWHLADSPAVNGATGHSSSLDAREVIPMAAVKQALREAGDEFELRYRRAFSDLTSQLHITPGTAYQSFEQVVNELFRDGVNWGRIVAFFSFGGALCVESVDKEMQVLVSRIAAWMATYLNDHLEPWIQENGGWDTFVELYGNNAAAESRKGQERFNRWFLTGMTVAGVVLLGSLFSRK
compound,measurement,setting,value
CN(C)CC[C@H](CSc1ccccc1)Nc1ccc(S(=O)(=O)NC(=O)c2ccc(N3CCN(Cc4ccccc4-c4ccc(Cl)cc4)CC3)cc2)cc1[N+](=O)[O-] [ABT-737],binding affinity to BCL-XL,[1],< 1 nmol/L
same,binding affinity to BCL-2,[2],< 1 nmol/L
same,binding affinity to BCL-w,[3],< 1 nmol/L
CN(CC(=O)N(Cc1ccc(C2CCCCC2)cc1)c1ccc(C(=O)O)c(O)c1)S(=O)(=O)c1c(F)c(F)c(F)c(F)c1F [BP-1-102],IL-6-mediated IgM secretion,[4],inhibited
"C=CC(=O)N1CCC[C@@H](n2nc(-c3ccc(Oc4ccccc4)cc3)c3c(N)ncnc32)C1 [Ibrutinib, 1-[(3R)-3-[4-amino-3-(4-phenoxyphenyl)-1Hpyrazolo[3,4-d]pyrimidin-1-yl]-1-piperidinyl]-2-propen-1-one, reference compound]",% apoptotic cells,[5]; absence of BMSC (FIG. 13A),approximately 60%
same,sensitivity of MWCL-1 cells to the drug in HS-5 BMSC coculture,[6],reduced the sensitivity
same,% apoptotic cells,[7],neither Ibrutinib nor Tocilizumab as a single therapy increased
"CC(C)C[C@H](NC(=O)CNC(=O)c1cc(Cl)ccc1Cl)B(O)O [Ixazomib, reference compound]",killing / apoptosis of MWCL-1 tumor cells,[5]; [23],Kills
NCCCCN(Cc1nc2ccccc2[nH]1)[C@H]1CCCc2cccnc21 [Mavorixafor],apoptosis of BMSCs,[8],much weaker effects
same,apoptosis efficacy of ixazomib when mavorixafor is added,[5]; [23],Enhances
same,"apoptosis of MWCL-1 cells, single agent","[5]; monoculture (FIG. 8A-F, FIG. 4A-F)",minor increase
same,CXCL12-mediated Ca2+ mobilization,[9],blocked
same,CXCL12-induced signaling pathway in ALL cells,[10],effectively block
same,preestablished adhesion of ALL cells to stroma,[10],disrupt
same,sensitivity of ALL cells to vincristine and nilotinib,[10],increase sensitivity
same,stromal-induced migration of ALL cells,[10],block
same,"tolerability, treatment-related serious adverse events",[11],"well tolerated, with no treatment-related serious adverse events"
same,solubility,"[12]; aqueous buffer, pH range 3.0 to 8.0",> 100 mg/mL
same,Solubility in water,[12]; water,only slightly soluble
same,half-life,[13],12 to 24 h
same,migration toward BMSC-secreted CXCL12,[14]; HS-27A BMSCs in lower chamber (FIG. 3C),significantly inhibited
same,migration toward a CXCL12 gradient,[14]; pretreatment of MWCL-1 cells (FIG. 3B),significantly inhibited
same,proteolytic cleavage of caspase-3 and PARP,[15],minor effects
same,cytotoxicity in MWCL-1 cells,[16],not sufficient to induce cytotoxicity
same,adhesion of WM cells to BMSCs,[17],dose-dependent decrease
same,IL-6 release,[18],no significant effect
same,sensitivity of MWCL-1 cells to apoptosis by B-cell-targeted inhibitors in presence of BMSCs,[7]; HS-27A BMSC coculture (FIG. 5A-F),restored the sensitivity
same,"BM stroma-induced IgM hypersecretion, combination with ixazomib","[19]; BMSC: HS-27A cells, 72 hours (FIG. 16)",Synergizes
same,BMSC-induced IgM hypersecretion,"[19]; HS-27A coculture, 48 or 72 hours (FIG. 6A-G)",inhibited
CCc1cc(O)c(F)cc1-c1ccc2c(-c3nc4c([nH]3)CCN(C(=O)c3cnc(N5CCCCC5)cn3)C4)n[nH]c2c1 [PF-06263276],IL-6-mediated IgM secretion,[4],inhibited
"Tocilizumab: IL-6R antibody tocilizumab (Actemra, Genentech)",IgM secretion,[20],reduces
same,tumor growth,[20],reduces
same,increase of CXCR4 surface expression by HS-27A BMSC coculture,[21],inhibited
same,% apoptotic cells,[7],neither Ibrutinib nor Tocilizumab as a single therapy increased
same,IL-6-mediated IgM secretion,[4],inhibited
ulocuplumab: monoclonal anti-CXCR4 antibody,"tumor infiltration in BM, spleen, and lymph nodes",[22],reduced
